Read-outs that look alike come from different tables or passages of the source. Numbered stars: 1 amine (or outer) side, 2 acyl side, 3 side chain; on linkers, the order of the positions; unused ones are H or OH. Square brackets hold non-standard residues; d marks the D form. Peptide text beside a SMILES is read from it. X1 = N=C(N)NCCC[C@H](N[*:1])C(=O)c1nc2ccc(C(=O)[*:2])cc2s1
What was measured:
Factor Xa = target: T1, Factor Xa (Homo sapiens, UniProt P00742); assay: Fluorogenic assay, Factor Xa; type: biochemical; settings: read-out: Factor Xa IC50
T1 construct: TMPRSS2; Matriptase; Hepsin; HGFA; Thrombin; Factor Xa
T1 sequence (P00742 235-488 limits assumed): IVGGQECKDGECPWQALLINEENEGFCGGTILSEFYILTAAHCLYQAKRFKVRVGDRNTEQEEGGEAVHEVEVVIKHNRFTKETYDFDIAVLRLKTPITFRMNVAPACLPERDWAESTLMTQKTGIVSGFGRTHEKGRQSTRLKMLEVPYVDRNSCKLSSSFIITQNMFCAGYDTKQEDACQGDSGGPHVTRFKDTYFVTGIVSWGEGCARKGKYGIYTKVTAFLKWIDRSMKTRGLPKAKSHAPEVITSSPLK
T1 sequence (P00742 41-179 partner limits assumed): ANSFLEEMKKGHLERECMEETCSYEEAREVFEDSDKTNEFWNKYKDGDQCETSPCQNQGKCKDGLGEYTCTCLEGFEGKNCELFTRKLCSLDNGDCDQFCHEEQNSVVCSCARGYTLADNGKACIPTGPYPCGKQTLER

HGFA = target: T2, HGFA (Homo sapiens, UniProt Q04756); assay: Fluorogenic kinetic enzyme inhibitor assay, HGFA; type: biochemical
T2 construct: purchased R&D Systems 1514-SE-010
T2 sequence (Q04756 408-655 limits assumed): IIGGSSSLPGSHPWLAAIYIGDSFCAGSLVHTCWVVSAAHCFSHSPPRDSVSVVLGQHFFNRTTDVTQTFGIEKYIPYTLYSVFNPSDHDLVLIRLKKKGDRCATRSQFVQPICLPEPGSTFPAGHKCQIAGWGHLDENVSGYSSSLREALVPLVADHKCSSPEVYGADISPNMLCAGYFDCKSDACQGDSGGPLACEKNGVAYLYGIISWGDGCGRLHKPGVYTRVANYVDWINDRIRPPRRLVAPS
T2 sequence (Q04756 373-407 partner limits assumed): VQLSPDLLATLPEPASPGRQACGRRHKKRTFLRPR

matriptase = target: T3, matriptase (Homo sapiens, UniProt Q9Y5Y6); assay: Fluorogenic kinetic enzyme inhibitor assay, matriptase; type: biochemical
T3 construct: purchased R&D Systems 3946-SEB-010
T3 sequence (Q9Y5Y6 615-855 limits assumed): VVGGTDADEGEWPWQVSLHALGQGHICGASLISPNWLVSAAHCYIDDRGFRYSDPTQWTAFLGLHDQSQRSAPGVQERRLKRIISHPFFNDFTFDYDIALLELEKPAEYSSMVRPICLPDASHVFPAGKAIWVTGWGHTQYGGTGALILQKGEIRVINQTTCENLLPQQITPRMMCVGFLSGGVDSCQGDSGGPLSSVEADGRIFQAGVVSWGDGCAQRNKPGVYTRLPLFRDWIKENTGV

Thrombin = Thrombin (Homo sapiens, UniProt P00734); assay: Fluorogenic assay, thrombin; type: biochemical
TMPRSS2 = TMPRSS2 (Homo sapiens, UniProt O15393); assay: Fluorogenic kinetic enzyme inhibitor assay, TMPRSS2; type: biochemical; set-up: purchased Cusabio Technology CSB-YP023924HU
Sequence of TMPRSS2 (O15393 106-492 limits assumed): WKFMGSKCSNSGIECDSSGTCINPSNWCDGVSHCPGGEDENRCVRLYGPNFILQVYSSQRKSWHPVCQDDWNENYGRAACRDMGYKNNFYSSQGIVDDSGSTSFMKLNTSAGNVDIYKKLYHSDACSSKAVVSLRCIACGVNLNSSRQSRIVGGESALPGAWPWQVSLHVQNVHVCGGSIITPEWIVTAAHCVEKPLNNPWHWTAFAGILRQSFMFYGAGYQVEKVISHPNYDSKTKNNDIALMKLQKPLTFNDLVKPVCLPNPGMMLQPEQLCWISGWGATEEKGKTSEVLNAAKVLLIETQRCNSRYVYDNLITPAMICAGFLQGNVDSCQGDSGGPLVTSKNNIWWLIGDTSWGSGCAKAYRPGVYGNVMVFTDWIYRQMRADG

SARS-CoV-2 = type: cell-based; set-up: unit not given here
hepsin = target: T4, hepsin (Homo sapiens, UniProt P05981); assay: Fluorogenic kinetic enzyme inhibitor assay, hepsin; type: biochemical
T4 construct: purchased R&D Systems 4776-SE-010
T4 sequence (P05981 163-417 limits assumed): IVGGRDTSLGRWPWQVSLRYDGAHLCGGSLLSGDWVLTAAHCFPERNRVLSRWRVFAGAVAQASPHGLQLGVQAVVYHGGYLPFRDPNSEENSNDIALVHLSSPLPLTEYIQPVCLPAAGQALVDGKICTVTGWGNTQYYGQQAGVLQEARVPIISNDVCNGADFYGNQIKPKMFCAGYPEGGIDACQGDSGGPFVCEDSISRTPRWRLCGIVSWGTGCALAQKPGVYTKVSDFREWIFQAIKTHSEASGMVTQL
T4 sequence (P05981 1-162 partner limits assumed): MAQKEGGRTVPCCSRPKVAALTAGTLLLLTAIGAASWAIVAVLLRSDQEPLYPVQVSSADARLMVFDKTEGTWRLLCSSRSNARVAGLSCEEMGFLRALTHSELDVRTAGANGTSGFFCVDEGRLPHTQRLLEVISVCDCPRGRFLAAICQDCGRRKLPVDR

[1] = 30 min incubation, Boc-QLR-AMC at Km, read-out: HGFA IC50
[2] = 30 min incubation, Boc-QAR-AMC at Km, read-out: Matriptase IC50
[3] = 30 min incubation, Boc-QAR-AMC at Km, read-out: TMPRSS2 IC50
[4] = 30 min incubation, Boc-QAR-AMC at Km, read-out: Hepsin IC50

| Structure (SMILES) | IC50 (Factor Xa) [nM] | IC50 (Thrombin) [nM] | IC50 (hepsin; read-out: Hepsin IC50) [nM] | IC50 (matriptase) [nM] | IC50 (TMPRSS2; read-out: TMPRSS2 IC50) [nM] | IC50 (HGFA; [1]) [nM] | IC50 (TMPRSS2; [3]) [nM] | other results |
| --- | --- | --- | --- | --- | --- | --- | --- | --- |
| CC(=O)N[C@H]1CC(=O)NCCCC[C@@H](C(=O)O)NC(=O)[C@H](CC(C)C)NC1=O |  |  |  |  |  |  |  | ring closure, yield of all isomers (from CC(=O)N[C@@H](CC(=O)O)C(=O)N[C@@H](CC(C)C)C(=O)N[C@@H](CCCCN)C(=O)O, amide bond, EDCI/HOBt/iPr2NEt, DMF, 21.25 mM, 25.0 °C, 16.0 h, 9 steps): 59.1% |
| COC(=O)[C@@H]1CC=CCOc2ccc(cc2)C[C@H](NC(C)=O)C(=O)N[C@@H](CC(C)C)C(=O)N1 [Ac-cyclo-(L) Tyr-Leu-allyl-OMe] |  |  |  |  |  |  |  | ring closure, yield of all isomers (from C=CCOc1ccc(C[C@H](NC(C)=O)C(=O)N[C@@H](CC(C)C)C(=O)N[C@@H](CC=C)C(=O)OC)cc1, rcm bond, Grubbs 2nd generation catalyst, DCM, 1.28 mM, 40.0 °C, 18.0 h): 65% |
| CC(=O)N[C@H]1CC(=O)NCCCC[C@@H](C(=O)N[C@@H](CCCNC(=N)N)C(=O)c2nc3ccccc3s2)NC(=O)[C@H](CC(C)C)NC1=O [VD2173, Ac-Cyclo(DLK)—R-ketobenzothiazole] | 2050 | 8140 | 19 |  |  |  |  | IC50 (HGFA; read-out: HGFA IC50): 8520 nM; IC50 (matriptase; read-out: Matriptase IC50): 2.6 nM; IC50 (TMPRSS2): 2.14 nM; SARS-CoV-2 Calu-3- titer (0.01 uM) (SARS-CoV-2): 11; SARS-CoV-2 Calu-3 titer (0.1 uM) (SARS-CoV-2): 17; SARS-CoV-2 Calu-3 titer (1 uM) (SARS-CoV-2): 57 |
| CC(=O)N[C@H]1C/C=C\COc2ccc(cc2)C[C@@H](C(=O)N[C@@H](CCCNC(=N)N)C(=O)c2nc3ccccc3s2)NC(=O)[C@H](CC(C)C)NC1=O [VD4051, N-[(S)-1-[(1,3-benzothiazol-2-yl)carbonyl]-4-guanidinobutyl]-(4Z,7S,10S,13S)-7-acetylamino-10-isobutyl-8,11-dioxo-2-oxa-9,12-diazabicyclo[13.2.2]nonadeca-1(17),4,15,18-tetraene-13-carboxamide] | 8810 | > 20000 |  | 14 | 14.2 |  |  | IC50 (HGFA): > 20000 nM; IC50 (hepsin): 20 nM |
| CC(=O)N[C@H]1Cc2ccc(cc2)OCCCC[C@@H](C(=O)N[C@@H](CCCNC(=N)N)C(=O)c2nc3ccccc3s2)NC(=O)[C@H](CC(C)C)NC1=O [VD4072, N-[(S)-1-[(1,3-benzothiazol-2-yl)carbonyl]-4-guanidinobutyl]-(7S,10S,13S)-13-acetylamino-10-isobutyl-9,12-dioxo-2-oxa-8,11-diazabicyclo[13.2.2]nonadeca-1(17),15,18-triene-7-carboxamide] | 2650 | > 20000 |  |  |  | 40 | 9.79 | IC50 (matriptase; [2]): 32 nM; IC50 (hepsin; [4]): 0.91 nM |
| CC(=O)N[C@H]1CCCCn2cc(nn2)C[C@H](C(=O)N[C@@H](CCCNC(=N)N)C(=O)c2nc3ccccc3s2)NC(=O)[C@H](CC(C)C)NC1=O [VD4118B, N-[(S)-1-[(1,3-benzothiazol-2-yl)carbonyl]-4-guanidinobutyl]-(6S,9S,12R)-6-acetylamino-9-isobutyl-7,10-dioxo-1,8,11,15,16-pentaazabicyclo[12.2.1]heptadeca-14(17),15-diene-12-carboxamide] | 9540 | > 20000 |  |  |  | 10900 | 14.9 | IC50 (matriptase; [2]): 91.2 nM; IC50 (hepsin; [4]): 137 nM |
| CC(=O)N[C@H]1Cc2ccc(cc2)OCCCC[C@@H](C(=O)N[C@@H](CCCNC(=N)N)C(=O)c2nc3ccccc3s2)NC(=O)[C@H](Cc2c[nH]c3ccccc23)NC1=O [VD4158, N-[(S)-1-[(1,3-benzothiazol-2-yl)carbonyl]-4-guanidinobutyl]-(7S,10S,13S)-13-acetylamino-10-[(3-indolyl)methyl]-9,12-dioxo-2-oxa-8,11-diazabicyclo[13.2.2]nonadeca-1(17),15,18-triene-7-carboxamide] | 9530 | > 20000 |  |  |  | 85.2 | 15.8 | IC50 (matriptase; [2]): 56.8 nM; IC50 (hepsin): 2.84 nM |
| CC(=O)N[C@H]1Cc2ccc(cc2)OC/C=C\C[C@@H](C(=O)N[C@@H](CCCNC(=N)N)C(=O)c2nc3ccccc3s2)NC(=O)[C@@H](Cc2c[nH]c3ccccc23)NC1=O [VD5027, N-[(S)-1-[(1,3-benzothiazol-2-yl)carbonyl]-4-guanidinobutyl]-(4Z,7S,10R,13S)-13-acetylamino-10-[(3-indolyl)methyl]-9,12-dioxo-2-oxa-8,11-diazabicyclo[13.2.2]nonadeca-1(17),4,15,18-tetraene-7-carboxamide] | 1360 | 19900 |  |  |  | 4.58 | 0.978 | IC50 (matriptase; [2]): 5.68 nM; IC50 (hepsin; [4]): 0.693 nM |
| CC(=O)N[C@H]1Cc2ccc(cc2)Oc2cccc(c2)C[C@@H](C(=O)N[C@@H](CCCNC(=N)N)C(=O)c2nc3ccccc3s2)NC(=O)[C@H](CC(C)C)NC1=O [VD5064B, N-[(S)-1-[(1,3-benzothiazol-2-yl)carbonyl]-4-guanidinobutyl]-(9S,12S,15S)-15-acetylamino-12-isobutyl-11,14-dioxo-2-oxa-10,13-diazatricyclo[15.2.2.1^3,^7]docosa-1(19),3,5,7(22),17,20-hexaene-9-carboxamide] | 955 | > 20000 | 0.168 |  |  | 61.4 | 11 | IC50 (matriptase; read-out: Matriptase IC50): 90 nM |
| CC(=O)N[C@@H](CO)C(=O)N[C@@H](CCCCN)C(=O)N[C@@H](Cc1ccccc1)C(=O)N[C@@H](CCCNC(=N)N)C(=O)c1nccs1 [ZFH6095, N-[(S)-1-[N-(S)-4-guanidino-1-[(1,3-thiazol-2-yl)carbonyl]butylcarbamoyl]-2-phenylethyl](S)-2-[(S)-2-acetylamino-3-hydroxypropionylamino]-6-aminohexanamide] | 1060 | > 20000 | 17 | 6.1 | 7.89 |  |  | IC50 (HGFA): 114 nM |
| CC(=O)N[C@@H](CCCCN)C(=O)N[C@@H](CCC(N)=O)C(=O)N[C@@H](Cc1ccccc1)C(=O)N[C@@H](CCCNC(=N)N)C(=O)c1nccs1 [ZFH6101, N-[(S)-1-[N-(S)-4-guanidino-1-[(1,3-thiazol-2-yl)carbonyl]butylcarbamoyl]-2-phenylethyl](S)-2-[(S)-1-acetylamino-5-aminopentylcarbonylamino] glutaramide] | 158 | > 20000 | 1.2 | 1.4 | 28.9 |  |  | IC50 (HGFA; read-out: HGFA IC50): 116 nM |
| CC(=O)N[C@@H](Cc1ccccc1)C(=O)N[C@@H](CC(C)C)C(=O)N[C@@H](Cc1ccccc1)C(=O)N[C@@H](CCCNC(=N)N)C(=O)c1nc2ccccc2s1 [ZFH7063, N-[(S)-1-[N-(S)-1-[(1,3-benzothiazol-2-yl)carbonyl]-4-guanidinobutylcarbamoyl]-2-phenylethyl](S)-2-[(S)-2-acetylamino-3-phenylpropionylamino]-4-methylvaleramide] | 26 | > 20000 |  | 7.2 | 3 |  |  | IC50 (HGFA): 228 nM; IC50 (hepsin): 2.9 nM |
| CC(=O)N[C@@H](Cc1c[nH]c2ccccc12)C(=O)N[C@@H](CC(C)C)C(=O)N[C@@H](Cc1ccccc1)C(=O)N[C@@H](CCCNC(=N)N)C(=O)c1nc2ccccc2s1 [ZFH7064, N-[(S)-1-[N-(S)-1-[(1,3-benzothiazol-2-yl)carbonyl]-4-guanidinobutylcarbamoyl]-2-phenylethyl](S)-2-[(S)-2-acetylamino-3-(3-indolyl)propionylamino]-4-methylvaleramide] | 2 | > 20000 |  | 12 | 0.092 |  |  | IC50 (HGFA): 266 nM; IC50 (hepsin): 0.69 nM |
| CC(=O)N[C@@H](CO)C(=O)N[C@@H](CCCCN)C(=O)N[C@@H](CC(C)C)C(=O)N[C@@H](CCCNC(=N)N)C(=O)c1nc2ccc(C(=O)N[C@H](C(N)=O)C(C)C)cc2s1 [ZFH7116, N-[(S)-1-carbamoyl-2-methylpropyl]-2-[(S)-2-[(S)-2-[(S)-1-[(S)-2-acetylamino-3-hydroxypropionylamino]-5-aminopentylcarbonyl-amino]-4-methylvalerylamino]-5-guanidinovaleryl]-1,3-benzothiazole-6-carboxamide] (Ac-SKL[X1]V-NH2) | 514 | 7530 | 1 |  |  |  |  | IC50 (HGFA; read-out: HGFA IC50): 23 nM; IC50 (matriptase; read-out: Matriptase IC50): 14 nM; IC50 (TMPRSS2): 2.5 nM |

From patent publication US20250171495A1, “MUTLI-TARGETED SERINE PROTEASE INHIBITORS FOR TREATMENT OF CANCER AND VIRAL INFECTION” (Washington University, priority 2023, published 2025)
